# Laboratory results published in ChEMBL document CHEMBL1201862, “PubChem BioAssay data set” (2004).
# Structures can show the parent of a compound that is named as a salt. Calls of active or inactive are those of the source.
# How the values were obtained:
# [1] = molecular target: T1, Heat shock factor protein 1 (Mus musculus, UniProt P38532); test: HSF1 potentiators in luciferase reporter cells, confirmation, cell-based, NIH3T3, luminescence, dose retest (AID 435004); assay type: functional;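 further: stress induced by proteasome inhibitor MG132 added 30 min after compound; luciferase reporter driven by HSF1 response element in NIH3T3 cells; actives raise luminescence as potentiators of the MG132 stress response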
# T1 sequence (P38532 whole entry): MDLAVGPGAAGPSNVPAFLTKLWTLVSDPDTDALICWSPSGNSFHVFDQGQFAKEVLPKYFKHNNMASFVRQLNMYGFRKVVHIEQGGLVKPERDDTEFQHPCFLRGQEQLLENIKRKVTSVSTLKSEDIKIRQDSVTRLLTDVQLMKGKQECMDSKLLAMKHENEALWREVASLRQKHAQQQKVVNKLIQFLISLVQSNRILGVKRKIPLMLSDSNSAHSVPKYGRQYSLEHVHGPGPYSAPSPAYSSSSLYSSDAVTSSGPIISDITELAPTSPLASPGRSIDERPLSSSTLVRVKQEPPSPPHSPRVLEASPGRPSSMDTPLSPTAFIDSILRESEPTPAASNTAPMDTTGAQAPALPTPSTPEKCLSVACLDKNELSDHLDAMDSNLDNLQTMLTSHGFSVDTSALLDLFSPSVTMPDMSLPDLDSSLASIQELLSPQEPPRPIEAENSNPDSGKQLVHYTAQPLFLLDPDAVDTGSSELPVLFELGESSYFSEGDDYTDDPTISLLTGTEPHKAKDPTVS
# cells [2] = assay type: functional, cell-based
# cells [3] = assay type: functional, cell-based; remark: listed apart in the source
# [4] = growth suppression of PTEN-null colon cells, dose response, cell-based, HCT116 PTEN knockout (AID 1047); assay type: functional;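 further: HCT116 colon tumor cells with PTEN knocked out; cells exposed to compound for 60 hours before readout; potency for loss of cell viability measured by luminescence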
# [5] = growth suppression of beta-catenin-knockout colon cells, dose response, cell-based, HCT116, human colon tumor (AID 1045); assay type: functional;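 further: HCT116 colon tumor cells with beta catenin knocked out; cells exposed to compound for 60 hours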
# [6] = molecular target: T1, Heat shock factor protein 1; test: inhibition of MG132-induced HSE-luciferase signal, confirmation, cell-based, NIH3T3, luminescence, dose retest (AID 2382); assay type: functional;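 further: NIH3T3 fibroblasts with HSF1-driven luciferase reporter stressed by proteasome inhibitor MG132; luminescence from HSF1-driven luciferase expression after 8 hours of MG132 stress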
# [7] = Luminescence Cell-Based Dose Retest to Confirm Inhibitors of Cancer Stem Cells. [Related pubchem assays (depositor defined):AID2717, AID2721]; assay type: functional; details: Homo sapiens
# INS1 = test: beta cell apoptosis inhibitors, cytokine rescue, dose response, luminescence, retest (AID 449756); assay type: functional, cell-based; details: Rattus norvegicus;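 further: cell death triggered by IL-1 beta plus TNF-alpha plus IFN-gamma mixture; protective hits raise ATP signal compared with cytokine alone wells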
# [8] = molecular target: T2, Ubiquitin-conjugating enzyme E2 N (Homo sapiens, UniProt P61088); assay type: functional;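 further: Dose-response confirmation in a TR-FRET assay detecting UBC13-driven polyubiquitin chain formation, inhibition measured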
# T2 sequence (P61088 whole entry): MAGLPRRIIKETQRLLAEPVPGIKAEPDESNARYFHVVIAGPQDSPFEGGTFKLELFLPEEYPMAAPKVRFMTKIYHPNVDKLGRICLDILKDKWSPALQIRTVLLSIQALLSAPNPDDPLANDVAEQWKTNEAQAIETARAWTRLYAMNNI
# [9] = molecular target: T3, Replicative DNA helicase DnaB (Mycobacterium tuberculosis, UniProt P9WMR3); test: DnaB intein splicing inhibitors, dose response, biochemical, cell-free fluorescence (AID 449749); assay type: functional
# T3 sequence (P9WMR3 whole entry): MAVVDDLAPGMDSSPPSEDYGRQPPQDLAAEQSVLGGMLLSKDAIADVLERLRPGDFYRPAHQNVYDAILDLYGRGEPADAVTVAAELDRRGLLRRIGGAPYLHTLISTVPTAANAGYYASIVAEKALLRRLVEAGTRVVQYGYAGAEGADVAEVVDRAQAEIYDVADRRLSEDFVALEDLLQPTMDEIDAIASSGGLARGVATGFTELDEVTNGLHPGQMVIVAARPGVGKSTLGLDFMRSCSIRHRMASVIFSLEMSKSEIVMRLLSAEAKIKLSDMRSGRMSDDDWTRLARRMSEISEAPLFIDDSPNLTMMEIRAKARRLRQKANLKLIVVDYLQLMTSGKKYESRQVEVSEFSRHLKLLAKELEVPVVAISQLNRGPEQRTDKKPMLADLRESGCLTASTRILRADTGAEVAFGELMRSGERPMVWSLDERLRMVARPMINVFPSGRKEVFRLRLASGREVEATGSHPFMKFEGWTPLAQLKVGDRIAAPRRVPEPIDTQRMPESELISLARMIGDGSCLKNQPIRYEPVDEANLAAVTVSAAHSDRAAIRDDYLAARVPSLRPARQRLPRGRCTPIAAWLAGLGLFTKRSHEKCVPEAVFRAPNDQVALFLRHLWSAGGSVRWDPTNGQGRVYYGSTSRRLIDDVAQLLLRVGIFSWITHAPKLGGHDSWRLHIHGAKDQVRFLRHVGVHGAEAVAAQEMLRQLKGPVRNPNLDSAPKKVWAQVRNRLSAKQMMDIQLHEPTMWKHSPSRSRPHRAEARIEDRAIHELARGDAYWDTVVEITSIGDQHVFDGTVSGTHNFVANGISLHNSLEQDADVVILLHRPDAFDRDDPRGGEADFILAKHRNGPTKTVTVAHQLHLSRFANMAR
# Protein RecA = molecular target: T4, Protein RecA (Mycobacterium tuberculosis, UniProt P9WHJ3); test: Fluorescence Cell-Free Homogeneous Dose Retest to Identify Inhibitors of RecA-Intein Splicing Activity. [Related pubchem assays (depositor defined):AID2097, AID2223, AID489010, AID492950]; assay type: functional
# T4 sequence (P9WHJ3 whole entry): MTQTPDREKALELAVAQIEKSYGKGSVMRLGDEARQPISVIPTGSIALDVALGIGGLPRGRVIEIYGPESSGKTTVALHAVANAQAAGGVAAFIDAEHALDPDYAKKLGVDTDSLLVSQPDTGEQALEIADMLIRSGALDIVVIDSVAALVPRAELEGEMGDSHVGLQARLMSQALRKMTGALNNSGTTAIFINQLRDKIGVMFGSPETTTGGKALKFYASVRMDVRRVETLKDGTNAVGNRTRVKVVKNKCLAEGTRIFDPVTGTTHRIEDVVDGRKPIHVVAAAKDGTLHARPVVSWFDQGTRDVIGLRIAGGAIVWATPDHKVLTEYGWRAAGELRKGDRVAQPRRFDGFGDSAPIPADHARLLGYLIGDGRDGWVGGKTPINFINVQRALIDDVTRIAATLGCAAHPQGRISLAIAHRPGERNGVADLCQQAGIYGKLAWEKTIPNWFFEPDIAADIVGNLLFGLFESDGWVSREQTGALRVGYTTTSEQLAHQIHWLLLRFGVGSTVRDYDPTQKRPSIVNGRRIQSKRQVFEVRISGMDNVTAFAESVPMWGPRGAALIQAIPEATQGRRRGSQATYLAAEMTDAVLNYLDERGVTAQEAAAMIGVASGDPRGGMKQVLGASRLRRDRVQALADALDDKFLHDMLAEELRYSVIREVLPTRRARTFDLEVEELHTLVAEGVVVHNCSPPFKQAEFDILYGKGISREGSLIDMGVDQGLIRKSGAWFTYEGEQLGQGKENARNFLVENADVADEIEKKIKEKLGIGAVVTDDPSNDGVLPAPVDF
# [10] = inhibitors of intracellular T. cruzi replication, confirmation, NIH3T3 host cells, beta-gal luminescence (AID 2044); assay type: functional, cell-based;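 further: intracellular parasites grown in NIH/3T3 mouse fibroblasts as host cells; luminescent beta-galactosidase reporter signal from transgenic T. cruzi replicating inside host cells; inhibitors lower the luminescence signal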
# [11] = cytotoxicity toward NIH3T3 fibroblasts, dose response, counter-screen, cell-based, ATP luminescence, mouse fibroblasts (AID 2010); assay type: functional;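 further: cells exposed to compound for about 90 hours before reading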
# [12] = inhibitors of firefly luciferase expression or activity, dose response, H4 neuroglioma cells, luminescence (AID 1990); assay type: functional, cell-based
# [13] = Luminescence Cell-Based Dose Response HTS to Identify Inhibitors of 5'UTR Stem-Loop Driven Prion Protein mRNA Translation in H4 Neuroglioblastoma Cells. [Related pubchem assays: 1827 (Project Summary), 1813 (Primary HTS)]; assay type: functional
# [14] = HEp-2 cell cytotoxicity, dose response, cytotoxicity control for RSV inhibitor project, HTS (AID 2410); assay type: functional; details: human respiratory syncytial virus
# [15] = Shn3 3'UTR reporter inhibitors, dose response, cell-based, Clone20 osteoblasts, firefly luciferase, cherry-picked (AID 624132); assay type: functional;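 further: firefly luciferase luminescence from reporter carrying the Shn3 3'UTR in osteoblasts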
# [16] = HepG2 cell cytotoxicity, dose response, cytotoxicity control for Shn3 inhibitor project, CellTiter-Glo, cherry-picked (AID 624134); assay type: functional, cell-based
# [17] = control 3'UTR Renilla luciferase suppression, dose response, counter-screen for Shn3 inhibitor project, cell-based, Clone20-Shn3RL, cherry-picked (AID 624133); assay type: functional
# Cytochrome P450 2D6 = Cytochrome P450 2D6 (Homo sapiens, UniProt P10635);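 further: CYP2D6 member of a cytochrome P450 panel assay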
# Sequence of Cytochrome P450 2D6 (P10635 whole entry): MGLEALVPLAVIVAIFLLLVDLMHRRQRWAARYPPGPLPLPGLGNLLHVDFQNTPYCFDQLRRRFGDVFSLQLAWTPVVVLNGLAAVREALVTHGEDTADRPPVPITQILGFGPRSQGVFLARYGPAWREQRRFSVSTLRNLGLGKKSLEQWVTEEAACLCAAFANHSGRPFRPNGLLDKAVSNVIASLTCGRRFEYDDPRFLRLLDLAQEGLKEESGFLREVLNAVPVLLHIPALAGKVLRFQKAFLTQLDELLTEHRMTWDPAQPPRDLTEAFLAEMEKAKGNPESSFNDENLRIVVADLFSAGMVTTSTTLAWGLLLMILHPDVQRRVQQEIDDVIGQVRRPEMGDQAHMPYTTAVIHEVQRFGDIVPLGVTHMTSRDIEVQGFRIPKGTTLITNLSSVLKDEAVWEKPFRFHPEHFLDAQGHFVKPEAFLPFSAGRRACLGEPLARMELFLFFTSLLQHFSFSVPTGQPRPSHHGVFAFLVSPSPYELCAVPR
smiles,measurement,setting,value
NS(=O)(=O)c1ccc(CCNC(=O)c2ccc([N+](=O)[O-])s2)cc1,EC50,[1],15.7 µM (active)
CCOC(=O)c1c(N2C(=O)C3C4C=CC(O4)C3C2=O)sc2c1CCCC2 (stereo unspecified),EC50,[1],> 260 µM (inactive)
CNC(=O)C1CC(=O)N(c2ccc(OCC(=O)N3CCCC3)cc2)C1 (stereo unspecified),EC50,cells [2],> 350 µM (not active)
same,EC50,cells [3],> 350 µM (not active)
same,EC50,[1],> 260 µM (inactive)
O=C(CCS(=O)(=O)c1ccccc1)Nc1ccccn1,EC50,[1],> 260 µM (inactive)
Cc1ccc(S(=O)(=O)c2c(N)n(Cc3ccco3)c3nc4ccccc4nc23)cc1C,EC50,[4],18.4 µM (active)
same,EC50,[5],20.1 µM (active)
CCOC(=O)c1cc2sccc2n1CC(=O)Nc1ccc(OC)cc1,EC50,cells [2],> 350 µM (not active)
same,EC50,[6],> 195 µM (not active)
same,EC50,cells [3],> 350 µM (not active)
Cc1ccc(C)c(NC(S)=NC(NC(=O)Cc2cccc3ccccc23)C(Cl)(Cl)Cl)c1 (stereo unspecified),EC50,[4],13.9 µM (active)
same,EC50,[5],15.5 µM (active)
same,AC50,[7],0.861 µM (active)
same,AC50,INS1,4.16 µM (active)
O=[N+]([O-])c1c(-c2cn[nH]c2)n[nH]c1-c1cn[nH]c1,IC50,[8],> 20 µM (inactive)
C=C(C)CN=C(S)N=Nc1c(O)[nH]c2ccc([N+](=O)[O-])cc12,IC50,[8],> 20 µM (inactive)
same,AC50,[9],52.8 µM (active)
same,EC50,Protein RecA,151 µM (inconclusive)
COCCCNC(=O)c1ccc(NS(C)(=O)=O)cc1,EC50,[1],> 260 µM (inactive)
CC(=O)Nc1ccc(S(=O)(=O)N2CCN(CC(O)COc3ccc4ccccc4c3)CC2)cc1 (stereo unspecified),IC50,[8],> 20 µM (inactive)
CCOC(=O)c1c(NC(=O)CSc2nc3cc(Cl)ccc3c(=O)n2Cc2ccco2)sc(C(=O)N(C)C)c1C,EC50,[10],0.999 µM (active)
same,EC50,[4],6.8 µM (active)
same,EC50,[11],> 60 µM (inconclusive)
same,EC50,[5],12.2 µM (active)
same,EC50,[1],7.33 µM (active)
CCC(CC)NC(=O)c1cc2c(C)nn(Cc3ccccc3Cl)c2s1,EC50,[12],11.7 µM (active)
same,EC50,[13],> 120 µM (not active)
CCCn1c(SCC(=O)N2CCc3ccccc3C2)nc2c1c(=O)n(C)c(=O)n2C,EC50,cells [2],> 350 µM (not active)
same,EC50,cells [3],> 350 µM (not active)
CC(C)(C)NC(=O)CN(C(=O)Cn1nnc(-c2ccc(Cl)cc2)n1)C1CCN(Cc2ccccc2)CC1,CC50,[14],25.7 µM (active)
same,EC50,[4],41.4 µM (active)
same,EC50,[5],37.9 µM (active)
Cc1ccc2nnn(Cc3cccc(C(C)(C)C)c3O)c2c1,EC50,[1],> 260 µM (inactive)
same,AC50,[15],5.44 µM (active)
same,AC50,[16],59.3 µM (active)
same,AC50,[17],7.31 µM (active)
CN(CC(=O)Nc1ccc(S(=O)(=O)N2CCCC2)cc1)CC(=O)Nc1cccc(F)c1,EC50,cells [2],> 350 µM (not active)
same,EC50,cells [3],> 350 µM (not active)
NC(CSCc1cccc(Br)c1)C(=O)O (stereo unspecified),EC50,[1],> 260 µM (inactive)
O=C(NNC(=O)C(O)(c1ccccc1)c1ccccc1)C1CC1,EC50,cells [2],> 350 µM (not active)
same,EC50,cells [3],> 350 µM (not active)
O=C(NCc1ccc2c(c1)OCO2)c1nc(S(=O)(=O)Cc2ccccc2F)ncc1Cl,AC50,[7],5.02 µM (active)
same,AC50,[9],2.6 µM (active)
same,EC50,Protein RecA,3.25 µM (active)
same,AC50,[15],5.19 µM (active)
same,AC50,[16],31.1 µM (active)
same,AC50,[17],5.92 µM (active)
O=C(Nc1ccc(Br)cc1F)c1ccc2c(c1)OCCO2,EC50,[13],10.8 µM (active)
COc1ccc(CN(C)CC(=O)Nc2ccc(SC(F)F)cc2)cc1OC,EC50,cells [2],> 350 µM (not active)
same,EC50,cells [3],> 350 µM (not active)
CN(CC(=O)Nc1cccc(S(=O)(=O)N2CCOCC2)c1)CC(=O)Nc1ccc(Cl)c(C(F)(F)F)c1,AC50,[15],2.4 µM (active)
same,AC50,[16],56.7 µM (active)
same,AC50,[17],6.89 µM (active)
COc1ccc([C@H]2CC(=O)C=C(c3ccc4c(c3)OCO4)C2)cc1OC,AC50,[15],58.3 µM (active)
same,AC50,[17],28.9 µM (active)
COc1ccc(/N=c2\oc3ccc(OC)cc3cc2-c2nc3ccccc3[nH]2)cc1,EC50,[4],3.77 µM (active)
same,EC50,[5],13 µM (active)
COc1cc(/C=N/N2CCN(C3c4ccccc4-c4ccccc43)CC2)cc(OC)c1OC,EC50,[1],> 260 µM (inactive)
Cc1cc(C)n(-c2nnc(C)n2/N=C/c2ccccc2OCc2ccccc2Cl)n1,AC50,Cytochrome P450 2D6,28.2 µM (inconclusive)
CN1CCCC(CC2c3ccccc3Sc3ccccc32)C1 (stereo unspecified) [METHIXENE HYDROCHLORIDE],IC50,[8],> 20 µM (inactive)
